What was measured:
His-p38δ = biological target: T1, His-p38δ (Homo sapiens, UniProt O15264); assay: SPR binary affinity, compound on immobilized His-p38δ; format: binding; settings: for Kd: His-p38δ immobilized, read-out: PROTAC:p38δ Kd
T1 construct: encoding a region spanning amino acids 1-365 was PCR-amplified; made in house; host or cells: E. coli BL21-CodonPlus(DE3)-RIPL
T1 sequence (O15264 1-365): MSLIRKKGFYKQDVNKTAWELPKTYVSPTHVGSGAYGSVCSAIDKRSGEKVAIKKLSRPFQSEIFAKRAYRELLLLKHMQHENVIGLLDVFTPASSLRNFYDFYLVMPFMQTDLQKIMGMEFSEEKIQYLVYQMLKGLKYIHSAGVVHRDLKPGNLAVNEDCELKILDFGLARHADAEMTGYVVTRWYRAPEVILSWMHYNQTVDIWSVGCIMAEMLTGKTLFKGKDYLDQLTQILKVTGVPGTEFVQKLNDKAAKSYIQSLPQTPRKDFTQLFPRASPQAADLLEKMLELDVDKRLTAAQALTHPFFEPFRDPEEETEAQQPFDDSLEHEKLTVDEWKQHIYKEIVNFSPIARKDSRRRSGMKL
Method: FIGS. 16A, 16B, and 16C. SPR curves assessing binary and ternary interactions. […] Equimolar p38δ:PROTAC mixtures were injected onto immobilized GST-VBC and allowed to dissociate overtime. […] See Table 12 for a summary of the binary and ternary affinity and kinetic measurements. […] Next, with the same setup, equimolar p38δ:PROTAC dilutions were successively injected onto immobilized VHL for 60 seconds, prior to monitoring complex dissociation for the remaining 300 seconds. This SPR strategy enabled us to determine effective ternary affinities for a given p38δ:PROTAC:VHL complex and compare the relative affinity change that occurs between VHL:PROTAC when p38δ is present in the mixture. […] This p38δ region was cloned into a pET28a vector containing an N-terminal His6 tag using NheI and BamHI restriction sites. As before, BL21-CodonPlus(DE3)-RIPL E. coli cells (Agilent Technologies) were transformed with pET[…]6-p38delta and were selected in LB medium containing kanamycin (50 μg mL^1), chloramphenicol (15 μg mL^-1), and spectinomycin (50 μg mL^-1) at 37° C. until OD600=0.8. […] Pure fractions of p38δ were pooled, concentrated to 3 mg mL^-1, aliquoted, and flash-frozen before storing at -80° C. SPR experiments were conducted on a Biacore 3000 instrument (GE Healthcare) at room temperature. GST antibody was immobilized through direct amination onto a carboxymethylated dextran surface (CM5) and GST-VBC was captured on the CM5 surface. This prepared surface was equilibrated over three hours in running buffer (10 mM HEPES buffer pH 7.4, 150 mM NaCl, 0.4 mg mL^-1 BSA, 0.005% P20, 2% DMSO). All compounds were prepared in 100% DMSO stock plates with a top concentration of 500 μM in a 3× serial dilution. Exemplary compounds were transferred from the stock plate to the assay plate and diluted into running buffer without DMSO. Equimolar concentration of target protein was added to corresponding compound wells. All exemplary compounds were run as a twelve point-concentration series with a final assay top concentration of 50 μM to measure p38δ:PROTAC and VHL:PROTAC binding and top concentration of 5 μM to measure p38δ:PROTAC:VHL binding. All exemplary compounds were injected for 60 seconds and allowed to dissociate for 300 seconds. Data analysis was performed in Scrubber 2 (BioLogic Software). Blanks from reference flow cell containing immobilized GST-VBC were subtracted to correct for noise and data was solvent-corrected against a standard DMSO curve.

p38α and p38δ mRNA = assay: Quantitative real-time PCR in MDA-MB-231 cells; format: cell-based; settings: 250 nM, 24 hours
Method: FIGS. 13A, 13B, 13C, and 13D. Exemplary compounds 50 and 46 degrade p38 isoforms in a manner that is rapid, sustained, and proteasome-dependent. (A) MDA-MB-231 cells were either pre-treated or not with the proteasome inhibitor epoxomicin (1 μM) or the neddylation inhibitor MLN4924 (1 μM) for 30 minutes and subsequently treated with either vehicle (DMSO), exemplary compound 50 (250 nM), or exemplary compound 46 (250 nM) for 6 hours. (B) Quantitative real-time PCR was performed after 24 hours of treatment with either vehicle (DMSO), exemplary compound 50 (250 nM), or exemplary compound 46 (250 nM) in MDAMB-231 cells. […]
MDA-MB-231 cells were plated at 3×10^5 cells per well in a 6-well dish, allowed to adhere, and were treated with either vehicle (DMSO) or PROTAC (250 nM) for 24 hours. […] RNA pellet was washed twice with 75% EtOH and allowed to air dry for 15 minutes, after which RNA was dissolved in 25 μL of nuclease-free H2O. cDNA was synthesized from 4 μg of total RNA per condition according to the manufacturer's protocol (Applied Biosystems) and real-time PCR was performed with 800 nM primers, diluted with 4 μL SYBR Green Reaction Mix (Applied Biosystems). qRT-PCR samples were performed and analyzed in triplicate, from two independent experiments. […]

Question: COc1cc2c(Oc3ccc(NC(=O)C4(C(=O)Nc5ccc(F)cc5)CC4)cc3F)ccnc2cc1OCCOCCOCCOc1cc(-c2scnc2C)ccc1CNC(=O)[C@@H]1C[C@@H](O)CN1C(=O)[C@H](C(C)C)N1Cc2ccccc2C1=O [compound 46] was tested. Which “loss of affinity for p38δ compared to the PTM (foretinib)” value (His-p38δ) did it give?
Answer: about 2 fold

Question: What about the Kd (His-p38δ) of the same compound?
Answer: 550 nM

Question: What about the “change in mRNA for either p38 isoform” value (p38α and p38δ mRNA) of the same compound?
Answer: no significant changes in mRNA

Question: Which results are given for COc1cc2c(Oc3ccc(NC(=O)C4(C(=O)Nc5ccc(F)cc5)CC4)cc3F)ccnc2cc1OCCCCOCCCCOCC(=O)N[C@H](C(=O)N1C[C@H](O)C[C@H]1C(=O)NCc1ccc(-c2scnc2C)cc1)C(C)(C)C [compound 50, N-(3-fluoro-4-((7-(4-(4-(2-(((S)-1-((2S,4R)-4-hydroxy-2-((4-(4-methylthiazol-5-yl)benzyl)carbamoyl)pyrrolidin-1-yl)-3,3-dimethyl-1-oxobutan-2-yl)amino)-2-oxoethoxy)butoxy)buto-xy)-6-methoxyquinolin-4-yl)oxy)phenyl)-N-(4-fluorophenyl)cyclopropane-1,1-dicarboxa-mide]?
Answer: loss of affinity for p38δ compared to the PTM (foretinib) (His-p38δ): about 2 fold; Kd (His-p38δ): 500 nM; change in mRNA for either p38 isoform (p38α and p38δ mRNA): no significant changes in mRNA
